Measurements published in the NIST ThermoML archive (doi:10.1021/acs.jced.5b00260).
Numbers after ± are expanded uncertainties.

Assay: mn = molality of the nth substance listed, in mol/kg
Conditions: 100 kPa, Liquid, Vibrating tube method

C[C@H](N)C(=O)O [(S)-2-aminopropanoic acid] + O
mass density [kg/m3]
Conditions | m1 = 0.1 | m1 = 0.2 | m1 = 0.3 | m1 = 0.4
298.2 K | 999.9 ± 0.2 | 1002.7 ± 0.2 | 1005.5 ± 0.2 | 1008.2 ± 0.2
303.2 K | 998.4 ± 0.2 | 1001.9 ± 0.2 | 1004.1 ± 0.2 | 1006.8 ± 0.2
308.2 K | 996.8 ± 0.2 | 1000.1 ± 0.2 | 1002.3 ± 0.2 | 1004.1 ± 0.2
